In ChEMBL document CHEMBL1158340, “Organoiodine (III)-mediated synthesis of 3-aryl/heteroaryl-5,7-dimethyl-1,2,4-triazolo[4,3-c]pyrimidines as antibacterial agents” (2009) one finds MIC and zone of inhibition data, which are given here for three compounds.

In general, MIC refers to the smallest concentration in the dilution series that meets the test's criterion for growth inhibition. Read a high MIC as a less susceptible organism.

Converted amounts (≈) assume the structure as drawn.

Holding throughout (type): functional
Experiment [1] deals with Geobacillus stearothermophilus. Kind of experiment: Antibacterial activity against Bacillus stearothermophilus MTCC 8508 after 24 hrs. The following applies: MTCC 8508, 24 h.
In experiment [2] the test system is Escherichia coli. Kind of experiment: Antibacterial activity against Escherichia coli MTCC 51 after 24 hrs. The following applies: MTCC 51, 24 h.
Experiment [3] has as its system Geobacillus stearothermophilus. As to the kind of experiment: Antibacterial activity against Bacillus stearothermophilus MTCC 8508 at 10 ug/mL by agar well diffusion method. The following applies: read-out: DIZ. A general note: Agar diffusion results depend on both activity and mobility in agar.
Experiment [4] deals with Bacillus subtilis. As to the kind of experiment: Antibacterial activity against Bacillus subtilis MTCC 8509 at 10 ug/mL by agar well diffusion method. The following applies: read-out: DIZ.
Experiment [5] relates to Geobacillus stearothermophilus. As to the kind of experiment: Antibacterial activity against Bacillus stearothermophilus MTCC 8508 at 100 ug/mL by agar well diffusion method. The following applies: read-out: DIZ.
Experiment [6] has as its system Bacillus subtilis. As to the kind of experiment: Antibacterial activity against Bacillus subtilis MTCC 8509 after 24 hrs. The following applies: MTCC 8509, 24 h.
Experiment [7] relates to Escherichia coli. As to the kind of experiment: Antibacterial activity against Escherichia coli MTCC 51 at 10 ug/mL by agar well diffusion method. The following applies: read-out: DIZ.
Experiment [8] deals with Bacillus subtilis. Kind of experiment: Antibacterial activity against Bacillus subtilis MTCC 8509 at 50 ug/mL by agar well diffusion method. The following applies: read-out: DIZ.
Experiment [9] deals with Escherichia coli. Kind of experiment: Antibacterial activity against Escherichia coli MTCC 51 at 100 ug/mL by agar well diffusion method. The following applies: read-out: DIZ.
Experiment [10] relates to Escherichia coli. As to the kind of experiment: Antibacterial activity against Escherichia coli MTCC 51 at 50 ug/mL by agar well diffusion method. The following applies: read-out: DIZ.
Experiment [11] concerns Pseudomonas putida. As to the kind of experiment: Antibacterial activity against Pseudomonas putida MTCC 121 after 24 hrs. The following applies: MTCC 121, 24 h.
Experiment [12] deals with Geobacillus stearothermophilus. Kind of experiment: Antibacterial activity against Bacillus stearothermophilus MTCC 8508 at 50 ug/mL by agar well diffusion method. The following applies: read-out: DIZ.
Experiment [13] relates to Pseudomonas putida. Kind of experiment: Antibacterial activity against Pseudomonas putida MTCC 121 at 50 ug/mL by agar well diffusion method. The following applies: read-out: DIZ.
The subject of experiment [14] is Pseudomonas putida. As to the kind of experiment: Antibacterial activity against Pseudomonas putida MTCC 121 at 10 ug/mL by agar well diffusion method. The following applies: read-out: DIZ.
For experiment [15], the system named is Bacillus subtilis. As to the kind of experiment: Antibacterial activity against Bacillus subtilis MTCC 8509 at 100 ug/mL by agar well diffusion method. The following applies: read-out: DIZ.
Experiment [16] deals with Pseudomonas putida. Kind of experiment: Antibacterial activity against Pseudomonas putida MTCC 121 at 100 ug/mL by agar well diffusion method. The following applies: read-out: DIZ.

With `Cc1cc2nnc(-c3ccc(F)cc3)n2c(C)n1`, the MIC stood at 16 µg/mL (≈ 66 µM) in [1], 32 µg/mL (≈ 132 µM) in experiment [2], 16 µg/mL (≈ 66 µM) in experiment [6] and 32 µg/mL (≈ 132 µM) in experiment [11]. Also, the zone of inhibition at 10 µg/mL turned out to be 10.1 mm in [3], 13.7 mm in [4], 11.3 mm in experiment [7] and 9.67 mm in [14]. The zone of inhibition at 100 µg/mL stood at 41.8 mm in experiment [5], 26.4 mm in experiment [9], 41.7 mm in experiment [15] and 23.2 mm in [16]. Moreover, the zone of inhibition at 50 µg/mL in experiment [8] was found to be 22.3 mm; in [10], 14.3 mm; in experiment [12] it was 23.4 mm; in experiment [13], 15.3 mm.

For the compound `CN[C@@H]1[C@H](O[C@H]2[C@H](O[C@H]3[C@H](O)[C@@H](O)[C@H](N=C(N)N)[C@@H](O)[C@@H]3N=C(N)N)O[C@@H](C)[C@]2(O)C=O)O[C@@H](CO)[C@H](O)[C@H]1O` [STREPTOMYCIN], the MIC in experiment [1] is 2 µg/mL (≈ 3.44 µM); in [2] it was 4 µg/mL (≈ 6.88 µM); in experiment [6], 2 µg/mL (≈ 3.44 µM); in experiment [11] it was 4 µg/mL (≈ 6.88 µM). The zone of inhibition at 10 µg/mL in experiment [3] was found to be 33.2 mm; in [4], 36.4 mm; in experiment [7] it was 26.4 mm; in [14] it was 38.2 mm. The zone of inhibition at 100 µg/mL in experiment [5] is 67.2 mm; in experiment [9] it was 69.4 mm; in [15], 73.2 mm; in experiment [16], 72.2 mm. In addition, the zone of inhibition at 50 µg/mL in experiment [8] was 57.4 mm; in [10] it was 49.4 mm; in experiment [12], 49.2 mm; in [13], 48.2 mm.

`Cc1cc2nnc(-c3ccc(Cl)cc3Cl)n2c(C)n1`: the MIC in [1] worked out at 4 µg/mL (≈ 13.6 µM); in experiment [2], 1 µg/mL (≈ 3.41 µM); in [6], 4 µg/mL (≈ 13.6 µM); in [11], 4 µg/mL (≈ 13.6 µM). For the same compound, the zone of inhibition at 10 µg/mL was 29.7 mm in experiment [3], 30.7 mm in experiment [4], 37.3 mm in experiment [7] and 29.3 mm in experiment [14]. In addition, the zone of inhibition at 100 µg/mL in experiment [5] was determined as 66.3 mm; in experiment [9] it was 75.3 mm; in experiment [15] it was 67.3 mm; in experiment [16], 67.7 mm. Further, the zone of inhibition at 50 µg/mL amounted to 47.7 mm in experiment [8], 63.7 mm in experiment [10], 48.3 mm in [12] and 49.7 mm in experiment [13].
